Values of other authors as cited in patent US20130331400A1, “METHOD FOR PRODUCING INDIGO-PLANT LEAF EXTRACT” (SUNSTAR INC.,, priority 2011, published 2013).

Legend:
[1] = general statement in background art
[2] = tested on: type IV allergic reactions; conditions: reported in PTL 2
[3] = tested on: fungi of the genus Malassezia; conditions: reported in PTL 1

For `O=C1c2ccccc2-n2c1nc1ccccc1c2=O` [tryptanthrin], the “Light stability of tryptanthrin (in words)” value [1] is listed as “poor light stability”, the “Effect on type IV allergic reactions (in words)” value [2] is listed as “effect of suppressing type IV allergic reactions” and the “Antibacterial action against fungi of the genus Malassezia (in words)” value [3] is listed as “has an antibacterial action against fungi of the genus Malassezia”.
